Assay results from US20250230155A1 (Vanderbilt University, priority 2021, published 2025).

Target: T1, human mAChR M4 (Homo sapiens, UniProt P08173)
T1 construct: expressed in transfected cells
T1 sequence (P08173 1-479): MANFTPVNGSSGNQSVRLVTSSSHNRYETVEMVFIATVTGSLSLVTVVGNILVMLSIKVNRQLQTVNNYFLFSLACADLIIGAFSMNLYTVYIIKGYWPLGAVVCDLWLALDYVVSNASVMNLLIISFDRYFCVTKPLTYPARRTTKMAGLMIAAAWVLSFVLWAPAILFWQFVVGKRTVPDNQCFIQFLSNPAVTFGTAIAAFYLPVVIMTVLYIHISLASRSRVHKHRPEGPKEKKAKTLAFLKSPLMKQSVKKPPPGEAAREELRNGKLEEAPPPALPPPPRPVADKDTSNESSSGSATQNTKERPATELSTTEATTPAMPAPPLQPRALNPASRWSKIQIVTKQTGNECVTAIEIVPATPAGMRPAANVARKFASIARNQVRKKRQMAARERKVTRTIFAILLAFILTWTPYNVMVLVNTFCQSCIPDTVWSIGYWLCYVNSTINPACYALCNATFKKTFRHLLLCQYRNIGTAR
Assay: mAChR M4 cell-based functional assay (calcium mobilization, CHO-K1 hM4-Gqi5 cells)
Conditions: for Emax at 30 µM: CHO-K1, % ACh maximum at 30 μM, human M4; for EC50: positive allosteric modulator activity, increase in the EC20 acetylcholine response, CHO-K1 hM4-Gqi5 cells, read-out: Human M4 EC50
Procedure, shortened: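 CHO-K1 cells stably expressing human M4 with chimeric Gqi5, loaded with Fluo-4 AM; compounds given as 11-point 1:3 curves and calcium flux read on FDSS at 1 Hz. Acetylcholine EC20 added at 144 s, EC80 at 230 s; agonist, PAM (EC20 potentiation) and antagonist (EC80 inhibition) EC50/Emax from four-parameter fits.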

| Emax at 30 µM [%] | EC50 [nM] | SMILES | Emax (CHO-K1) [%] |
| --- | --- | --- | --- |
| 96 | 1100 | Cc1cc(C#N)cnc1N1CCc2ncc(N3CCN(C)C(=O)C3)cc2C1 [Example 409, 5-methyl-6-(3-(4-methyl-3-oxopiperazin-1-yl)-7,8-dihydro-1,6-naphthyridin-6(5H)-yl)nicotinonitrile] | – |
| 63 | 9080 | Cc1cc(C(=O)NCCc2ccncc2)cnc1N1CCc2ncccc2C1 [compound 126, 6-(7,8-dihydro-5H-1,6-naphthyridin-6-yl)-5-methyl-N-[2-(4-pyridyl)ethyl]pyridine-3-carboxamide] | – |
| 51 | 910 | Cc1c(C#N)nnc(N2CCc3ncc(Nc4ccccc4N(C)C)cc3C2)c1C [compound 40, 6-[3-[2-(dimethylamino)anilino]-7,8-dihydro-5H-1,6-naphthyridin-6-yl]-4,5-dimethyl-pyridazine-3-carbonitrile] | – |
| 92 | 828 | Cc1cc(C(=O)NCc2nc3ccccc3s2)cnc1N1CCc2ncc(-c3cn(C)nc3C)cc2C1 [Example 453, N-(benzo[d]thiazol-2-ylmethyl)-6-(3-(1,3-dimethyl-1H-pyrazol-4-yl)-7,8-dihydro-1,6-naphthyridin-6(5H)-yl)-5-methylnicotinamide] | – |
| 92 | 35 | [2H]C1([2H])Cc2ncc(Nc3cccnc3C)cc2C([2H])([2H])N1c1ncc(C#N)cc1C [Example 602, 5-methyl-6-(3-((2-methylpyridin-3-yl)amino)-7,8-dihydro-1,6-naphthyridin-6(5H)-yl-5,5,7,7-d4)nicotinonitrile] | – |
| 84 | 562 | Cc1cc(C(=O)NCc2ccccn2)cnc1N1CCc2ncc(-c3cn(C)nc3C)cc2C1 [Example 458, 6-(3-(1,3-dimethyl-1H-pyrazol-4-yl)-7,8-dihydro-1,6-naphthyridin-6(5H)-yl)-5-methyl-N-(pyridin-2-ylmethyl)nicotinamide] | – |
| 72 | 817 | Cc1c(C#N)nnc(N2CCc3ncc(-c4ccc(N5CC6CC5CO6)nc4)cc3C2)c1C (stereo not shown) [Example 333, 6-(3-(6-(2-oxa-5-azabicyclo[2.2.1]heptan-5-yl)pyridin-3-yl)-7,8-dihydro-1,6-naphthyridin-6(5H)-yl)-4,5-dimethylpyridazine-3-carbonitrile] | – |
| 61 | 778 | Cc1c(C#N)nnc(N2CCc3ncc(-c4cnc(Cl)c(F)c4)cc3C2)c1C [compound 51, 6-[3-(6-chloro-5-fluoro-3-pyridyl)-7,8-dihydro-5H-1,6-naphthyridin-6-yl]-4,5-dimethyl-pyridazine-3-carbonitrile] | – |
| 81 | 193 | Cc1cc(C(=O)N2CC3(C2)CC(F)(F)C3)nnc1N1CCc2ncc(N3CCO[C@H](C)C3)cc2C1 [Example 574, (R)-(6,6-difluoro-2-azaspiro[3.3]heptan-2-yl)(5-methyl-6-(3-(2-methylmorpholino)-7,8-dihydro-1,6-naphthyridin-6(5H)-yl)pyridazin-3-yl)methanone] | – |
| 102 | 43 | COc1cnccc1CNC(=O)c1cc(C)c(N2CCc3ncc(C(F)(F)F)cc3C2)nn1 [Example 495, N-((3-methoxypyridin-4-yl)methyl)-5-methyl-6-(3-(trifluoromethyl)-7,8-dihydro-1,6-naphthyridin-6(5H)-yl)pyridazine-3-carboxamide] | – |
| 33 | 560 | Cc1c(C#N)nnc(N2CCc3ncc(-c4ccc5ncn(C)c5c4)cc3C2)c1C [Example 17] | – |
| 100 | 170 | Cc1cnccc1CNC(=O)c1cnc(N2CCc3ncc(C(F)(F)F)cc3C2)c(C)c1 [Example 445, 5-methyl-N-((3-methylpyridin-4-yl)methyl)-6-(3-(trifluoromethyl)-7,8-dihydro-1,6-naphthyridin-6(5H)-yl)nicotinamide] | – |
| 80 | 483 | Cc1ccccc1Nc1cnc2c(c1)CN(c1nnc(C#N)c(C)c1C)CC2 [compound 42, 4,5-dimethyl-6-[3-(2-methylanilino)-7,8-dihydro-5H-1,6-naphthyridin-6-yl]pyridazine-3-carbonitrile] | – |
| 64 | 271 | Cc1c(C#N)nnc(N2CCc3ncc(Oc4ccc(F)cc4F)cc3C2)c1C [Example 354, 6-(3-(2,4-difluorophenoxy)-7,8-dihydro-1,6-naphthyridin-6(5H)-yl)-4,5-dimethylpyridazine-3-carbonitrile] | – |
| 96 | 76 | Cc1cc(C#N)cnc1N1CCc2ncc(N3CCCc4ncccc43)cc2C1 [Example 362, 6-(3-(3,4-dihydro-1,5-naphthyridin-1(2H)-yl)-7,8-dihydro-1,6-naphthyridin-6(5H)-yl)-5-methylnicotinonitrile] | – |
| 64 | 191 | Cc1c(C#N)nnc(N2CCc3ncc(-c4ccc(N5CCN(C)CC5)nc4)cc3C2)c1C [Example 328, 4,5-dimethyl-6-(3-(6-(4-methylpiperazin-1-yl)pyridin-3-yl)-7,8-dihydro-1,6-naphthyridin-6(5H)-yl)pyridazine-3-carbonitrile] | – |
| 63 | 354 | Cc1nc(C)c(C)c(N2CCc3ncc(-c4ccc(N5CCC5)nc4)cc3C2)n1 [compound 234, 3-(6-(azetidin-1-yl)pyridin-3-yl)-6-(2,5,6-trimethylpyrimidin-4-yl)-5,6,7,8-tetrahydro-1,6-naphthyridine] | – |
| 62 | 1030 | Cc1cc(C(=O)NCc2cnc3ccccc3c2)cnc1N1CCc2ncccc2C1 [compound 140, 6-(7,8-dihydro-5H-1,6-naphthyridin-6-yl)-5-methyl-N-(3-quinolylmethyl)pyridine-3-carboxamide] | – |
| 57 | 438 | Cc1ccc(F)c(Nc2cnc3c(c2)CN(c2nnc(C#N)c(C)c2C)CC3)c1 [Example 37] | – |
| 68 | 2710 | Cc1cc(C(=O)NCc2ccnn2C)cnc1N1CCc2ncccc2C1 [compound 63, 6-(7,8-dihydro-5H-1,6-naphthyridin-6-yl)-5-methyl-N-[(2-methylpyrazol-3-yl)methyl]pyridine-3-carboxamide] | – |
| 110 | 17 | Cc1cc(C(=O)NCc2cncs2)nnc1N1CCc2ncc(C(F)(F)F)cc2C1 [Example 492, 5-methyl-N-(thiazol-5-ylmethyl)-6-(3-(trifluoromethyl)-7,8-dihydro-1,6-naphthyridin-6(5H)-yl)pyridazine-3-carboxamide] | – |
| 56 | ≥ 10000 | CNC(=O)c1ccc(CNC(=O)c2cnc(N3CCc4ncccc4C3)c(C)c2)cc1 [compound 149, 6-(7,8-dihydro-5H-1,6-naphthyridin-6-yl)-5-methyl-N-[[4-(methylcarbamoyl)phenyl]methyl] pyridine-3-carboxamide] | – |
| 72 | 94 | Cc1cc(C#N)cnc1N1CCc2ncc(N3CCCn4nc(C5CC5)cc43)cc2C1 [Example 415, 6-(3-(2-cyclopropyl-6,7-dihydropyrazolo[1,5-a]pyrimidin-4(5H)-yl)-7,8-dihydro-1,6-naphthyridin-6(5H)-yl)-5-methylnicotinonitrile] | – |
| 87 | 1460 | Cc1cc(C(=O)N(C)C)nnc1N1CCc2ncc(N3CCCn4nccc43)cc2C1 [Example 556, 6-(3-(6,7-dihydropyrazolo[1,5-a]pyrimidin-4(5H)-yl)-7,8-dihydro-1,6-naphthyridin-6(5H)-yl)-N,N,5-trimethylpyridazine-3-carboxamide] | – |
| 57 | 740 | Cc1cc(C#N)cnc1N1CCc2ncc(-c3cnn(C4CCCCC4)c3)cc2C1 [compound 99, 6-[3-(1-cyclohexylpyrazol-4-yl)-7,8-dihydro-5H-1,6-naphthyridin-6-yl]-5-methyl-pyridine-3-carbonitrile] | – |
| 80 | 2380 | Cc1cc(C(=O)NCc2cnn3ccccc23)cnc1N1CCc2ncccc2C1 [compound 69, 6-(7,8-dihydro-5H-1,6-naphthyridin-6-yl)-5-methyl-N-(pyrazolo[1,5-a]pyridin-3-ylmethyl)pyridine-3-carboxamide] | – |
| 83 | 4 | [2H]C1([2H])Cc2ncc(Nc3ccncc3F)cc2C([2H])([2H])N1c1nnc(C#N)c(C)c1C [Example 608, 6-(3-((3-fluoropyridin-4-yl)amino)-7,8-dihydro-1,6-naphthyridin-6(5H)-yl-5,5,7,7-d4)-4,5-dimethylpyridazine-3-carbonitrile] | – |
| 77 | 176 | Cc1nc(C)c(C)c(N2CCc3ncc(-c4cn(C)nc4C)cc3C2)n1 [compound 201, 3-(1,3-dimethylpyrazol-4-yl)-6-(2,5,6-trimethylpyrimidin-4-yl)-7,8-dihydro-5H-1,6-naphthyridine] | – |

| SMILES | Emax at 30 µM [%] | EC50 [nM] | Emax (CHO-K1) [%] |
| --- | --- | --- | --- |
| Cc1nc(Cl)c(C)c(N2Cc3cc(Br)cnc3C(C)(C)C2)n1 [compound 236, 3-bromo-6-(6-chloro-2,5-dimethylpyrimidin-4-yl)-8,8-dimethyl-5,6,7,8-tetrahydro-1,6-naphthyridine] | – | ≥ 10000 | 29 |
